Results taken from PubChem BioAssay (NCI).
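Five concentrations, 48 hours, 96-well plates. GI50: concentration for 50% inhibition of growth. TGI is the concentration that stops growth completely.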

Tests used:
Experiment in all cases: NCI anticancer screen, dose series, 48 h
CCRF-CEM leukemia = system: CCRF-CEM leukemia
UACC-257 melanoma = system: UACC-257 melanoma
KM12 colon = system: KM12 colon
HT29 colon = system: HT29 colon
HOP-92 NSCLC = system: HOP-92 NSCLC
786-0 renal = system: 786-0 renal
M14 melanoma = system: M14 melanoma
HCT-15 colon = system: HCT-15 colon
UACC-62 melanoma = system: UACC-62 melanoma
HL-60(TB) leukemia = system: HL-60(TB) leukemia
DU-145 prostate = system: DU-145 prostate
SK-MEL-2 melanoma = system: SK-MEL-2 melanoma
SK-OV-3 ovarian = system: SK-OV-3 ovarian
PC-3 prostate = system: PC-3 prostate
SF-295 CNS = system: SF-295 CNS
T-47D breast = system: T-47D breast
RXF 393 renal = system: RXF 393 renal
MDA-MB-231 breast = system: MDA-MB-231 breast
SNB-19 CNS = system: SNB-19 CNS
ACHN renal = system: ACHN renal
UO-31 renal = system: UO-31 renal
K-562 leukemia = system: K-562 leukemia
SN12C renal = system: SN12C renal
SF-268 CNS = system: SF-268 CNS
NCI-H460 lung = system: NCI-H460 lung
MOLT-4 leukemia = system: MOLT-4 leukemia
EKVX NSCLC = system: EKVX NSCLC
U251 CNS = system: U251 CNS
A498 renal = system: A498 renal

In the case of CN(C)c1nc(NCCNS(=O)(=O)c2ccc(C(=O)/C=C/c3ccc(F)cc3)cc2)nc(N2CCOCC2)n1, the GI50 (CCRF-CEM leukemia) is reported as 6.58 µM, the TGI (CCRF-CEM leukemia) is reported as 39.1 µM and the GI50 (UACC-257 melanoma) is reported as 15.5 µM. The TGI (UACC-257 melanoma) was 29.2 µM, the GI50 (KM12 colon) was 13.4 µM and the TGI (KM12 colon) was 30.6 µM. It also gave a GI50 (HT29 colon) of 2850 nM, a TGI (HT29 colon) of 8.39 µM and a GI50 (HOP-92 NSCLC) of 12.7 µM. The TGI (HOP-92 NSCLC) was 28.5 µM, the GI50 (786-0 renal) was 14.5 µM and the TGI (786-0 renal) was 28.7 µM. It also gave a GI50 (M14 melanoma) of 15 µM, a TGI (M14 melanoma) of 30.5 µM and a GI50 (HCT-15 colon) of 2150 nM. For the same compound, the TGI (HCT-15 colon) was 4.92 µM, the GI50 (UACC-62 melanoma) was 10.8 µM and the TGI (UACC-62 melanoma) was 23 µM. The GI50 (HL-60(TB) leukemia) was 14.7 µM, the TGI (HL-60(TB) leukemia) was > 100 µM and the GI50 (DU-145 prostate) was 14.4 µM. It also gave a TGI (DU-145 prostate) of 27.8 µM, a GI50 (SK-MEL-2 melanoma) of 13.7 µM and a TGI (SK-MEL-2 melanoma) of 26.8 µM. It also gave a GI50 (SK-OV-3 ovarian) of 13.8 µM, a TGI (SK-OV-3 ovarian) of 27.6 µM and a GI50 (PC-3 prostate) of 11.2 µM. It also gave a TGI (PC-3 prostate) of 25.5 µM, a GI50 (SF-295 CNS) of 11.3 µM and a TGI (SF-295 CNS) of 23.8 µM. The GI50 (T-47D breast) was 11.9 µM, the TGI (T-47D breast) was 33.5 µM and the GI50 (RXF 393 renal) was 8.82 µM. For the same compound, the TGI (RXF 393 renal) was 21.2 µM, the GI50 (MDA-MB-231 breast) was 12.3 µM and the TGI (MDA-MB-231 breast) was 25.3 µM. The GI50 (SNB-19 CNS) was 13.4 µM, the TGI (SNB-19 CNS) was 26.5 µM and the GI50 (ACHN renal) was 13.1 µM. For the same compound, the TGI (ACHN renal) was 26 µM, the GI50 (UO-31 renal) was 11 µM and the TGI (UO-31 renal) was 23 µM. The GI50 (K-562 leukemia) was 3.7 µM, the TGI (K-562 leukemia) was > 100 µM and the GI50 (SN12C renal) was 12 µM. For the same compound, the TGI (SN12C renal) was 24.4 µM, the GI50 (SF-268 CNS) was 15 µM and the TGI (SF-268 CNS) was 37.5 µM. The GI50 (NCI-H460 lung) was 15.7 µM, the TGI (NCI-H460 lung) was 33 µM and the GI50 (MOLT-4 leukemia) was 4.69 µM. The TGI (MOLT-4 leukemia) was > 100 µM, the GI50 (EKVX NSCLC) was 14.4 µM and the TGI (EKVX NSCLC) was 27.8 µM. It also gave a GI50 (U251 CNS) of 4.74 µM, a TGI (U251 CNS) of 16.7 µM and a GI50 (A498 renal) of 11.9 µM.
